Values of other authors, collected in patent publication US20120010144A1, “Peg-albumin composition having at least one protected thiol region as a platform for medications” (priority 2009, published 2012).

Settings: soluble in water (hydrophilic) or in lipid (hydrophobic)

| Compound | Solubility |
| --- | --- |
| COc1c(O)c(C)c(C/C=C(\C)CC/C=C(\C)CC/C=C(\C)CC/C=C(\C)CC/C=C(\C)CC/C=C(\C)CC/C=C(\C)CC/C=C(\C)CC/C=C(\C)CCC=C(C)C)c(O)c1OC [Ubiquinol] | Lipid |
| Cc1c(C)c2c(c(C)c1O)CC[C@@](C)(CCC[C@H](C)CCC[C@H](C)CCCC(C)C)O2 [A-Tocopherol] | Lipid |
| Carotenes | Lipid |

The next lines start with the values.

| Solubility | Compound |
| --- | --- |
| Water | N[C@@H](CCC(=O)N[C@@H](CS)C(=O)NCC(=O)O)C(=O)O [Glutathione] |
| Water | O=c1[nH]c(=O)c2[nH]c(=O)[nH]c2[nH]1 [Uric Acid] |
